Experimental data from ChEMBL document CHEMBL5518237, “Design of Novel 2-Phenylquinazolin-4-amines as Selective CYP1B1 Inhibitors for Overcoming Paclitaxel Resistance in A549 Cells” (J Med Chem, 2024).
pIC50: −log10 of the molar value. The source made the active and inactive calls. No cut-off for these calls is given here.

What was measured:
[1] = biological target: T1, Cytochrome P450 1A1 (Homo sapiens, UniProt P04798); experiment: Inhibition of human recombinant CYP1A1 using 7-ethoxyresorufin as substrate preincubated with enzyme for 5 mins followed by fluorescent substrate and NADPH addition and measured after 15 mins by EROD assay; assay type: ADME
T1 sequence (P04798 whole entry): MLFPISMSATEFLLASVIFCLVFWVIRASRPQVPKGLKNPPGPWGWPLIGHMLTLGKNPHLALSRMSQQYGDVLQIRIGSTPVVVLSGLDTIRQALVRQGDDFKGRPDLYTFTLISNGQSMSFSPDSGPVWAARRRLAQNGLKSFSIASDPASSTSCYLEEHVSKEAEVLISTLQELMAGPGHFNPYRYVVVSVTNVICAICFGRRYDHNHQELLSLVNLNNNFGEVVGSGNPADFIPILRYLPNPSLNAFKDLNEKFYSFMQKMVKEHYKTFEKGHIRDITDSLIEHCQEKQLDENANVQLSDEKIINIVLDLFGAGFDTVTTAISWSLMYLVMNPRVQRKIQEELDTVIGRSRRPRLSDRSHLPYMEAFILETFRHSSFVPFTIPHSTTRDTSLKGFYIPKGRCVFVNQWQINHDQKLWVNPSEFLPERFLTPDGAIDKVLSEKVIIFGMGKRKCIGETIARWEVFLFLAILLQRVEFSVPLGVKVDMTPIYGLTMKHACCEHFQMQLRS

[2] = Selectivity ratio of IC50 for Inhibition of human recombinant CYP1A1 to IC50 for Inhibition of human recombinant CYP1B1; assay type: ADME; settings: recombinant enzyme
[3] = biological target: T2, Cytochrome P450 1A2 (Homo sapiens, UniProt P05177); experiment: Inhibition of human recombinant CYP1A2 using 7-ethoxyresorufin as substrate preincubated with enzyme for 5 mins followed by fluorescent substrate and NADPH addition and measured after 50 mins by EROD assay; assay type: ADME
T2 sequence (P05177 whole entry): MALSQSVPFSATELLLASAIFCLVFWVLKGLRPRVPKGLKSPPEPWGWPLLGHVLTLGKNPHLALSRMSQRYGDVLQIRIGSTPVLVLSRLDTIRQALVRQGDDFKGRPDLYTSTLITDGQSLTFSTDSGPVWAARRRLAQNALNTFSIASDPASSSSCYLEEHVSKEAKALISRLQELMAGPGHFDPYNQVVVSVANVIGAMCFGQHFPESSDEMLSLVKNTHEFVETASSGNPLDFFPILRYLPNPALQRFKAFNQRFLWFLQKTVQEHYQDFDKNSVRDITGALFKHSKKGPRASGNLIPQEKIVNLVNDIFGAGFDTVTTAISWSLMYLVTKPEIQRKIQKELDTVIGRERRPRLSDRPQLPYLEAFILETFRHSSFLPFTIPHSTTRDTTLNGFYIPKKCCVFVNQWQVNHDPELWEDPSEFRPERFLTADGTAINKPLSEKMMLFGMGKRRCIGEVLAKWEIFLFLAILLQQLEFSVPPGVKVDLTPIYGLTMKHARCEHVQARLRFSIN

[4] = tested on: A549; experiment: Cytotoxicity against human A549 cells assessed as reduction in cell viability at 0.625 to 20 uM incubated for 48 hrs by MTT assay; assay type: toxicity, cell-based; settings: a549, 48 h, dose 0.625-20 µM
[5] = tested on: HEK-293T; experiment: Cytotoxicity against human HEK293T cells assessed as reduction in cell viability at 0.625 to 20 uM incubated for 48 hrs by MTT assay; assay type: toxicity, cell-based; settings: dose 0.625-20 µM
[6] = tested on: A549; experiment: Induction of apoptosis in DMBA-stimulated PTX resistant human A549 cells assessed as apoptosis rate at 5 uM incubated for 24 hrs by flow cytometry (reference value: 6.67 +/- 1.03%); assay type: functional
[7] = n-Octanol/water partition coefficient, logP of the compound by HPLC analysis; assay type: physicochemical
[8] = biological target: T3, CYP1B1 (Homo sapiens, UniProt Q16678); experiment: Inhibition of human recombinant CYP1B1 using 7-ethoxyresorufin as substrate at 0.01 uM preincubated with enzyme for 5 mins followed by fluorescent substrate and NADPH addition and measured after 35 mins by EROD assay; assay type: ADME; settings: recombinant CYP1B1, probe 7-ethoxyresorufin, time 40 min
T3 sequence (Q16678 whole entry): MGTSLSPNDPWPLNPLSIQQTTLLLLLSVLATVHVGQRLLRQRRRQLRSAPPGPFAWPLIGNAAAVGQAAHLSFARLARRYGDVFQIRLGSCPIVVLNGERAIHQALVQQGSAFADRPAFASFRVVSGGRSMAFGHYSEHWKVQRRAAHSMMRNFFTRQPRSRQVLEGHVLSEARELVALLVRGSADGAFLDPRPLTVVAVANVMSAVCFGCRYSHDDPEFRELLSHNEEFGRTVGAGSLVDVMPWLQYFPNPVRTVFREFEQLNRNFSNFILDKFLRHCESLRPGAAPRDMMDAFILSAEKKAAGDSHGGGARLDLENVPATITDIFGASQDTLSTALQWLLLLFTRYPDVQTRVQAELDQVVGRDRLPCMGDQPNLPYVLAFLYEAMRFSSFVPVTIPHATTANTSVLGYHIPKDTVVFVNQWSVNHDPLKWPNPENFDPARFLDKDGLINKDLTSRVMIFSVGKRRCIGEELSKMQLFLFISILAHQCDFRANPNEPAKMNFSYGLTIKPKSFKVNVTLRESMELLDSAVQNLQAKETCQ

[9] = biological target: T3, CYP1B1; experiment: Inhibition of human recombinant CYP1B1 using 7-ethoxyresorufin as substrate at 1 uM preincubated with enzyme for 5 mins followed by fluorescent substrate and NADPH addition and measured after 35 mins by EROD assay; assay type: ADME; settings: recombinant CYP1B1, probe 7-ethoxyresorufin, time 40 min
[10] = Drug uptake in human HCT-116 cells using radiolabeled compound at 0.037 MBq incubated for 120 mins by gamma-counting analysis; assay type: ADME, cell-based; settings: hct-116, 2 h
[11] = tested on: CYP1A2 versus CYP1B1; experiment: (§1) Selectivity ratio of IC50 for Inhibition of human recombinant CYP1A2 to IC50 for Inhibition of human recombinant CYP1B1; assay type: ADME; settings: recombinant CYP1A2 and recombinant CYP1B1, read-out: Ratio IC50
[12] = n-Octanol/PBS partition coefficient, log D of the radiolabeled compound at 0.37 MBq at pH 7.4 by gamma-counting analysis; assay type: physicochemical; settings: n-octanol/PBS, read-out: logD
[13] = biological target: T4, Cytochrome P450 1B1 (Homo sapiens, UniProt Q16678); experiment: Inhibition of human recombinant CYP1B1 using 7-ethoxyresorufin as substrate preincubated with enzyme for 5 mins followed by fluorescent substrate and NADPH addition and measured after 35 mins by EROD assay; assay type: ADME
T4 sequence (Q16678 whole entry): T3 sequence (Q16678 whole entry)

[14] = Drug uptake in human HEK293T cells using radiolabeled compound at 0.037 MBq incubated for 120 mins by gamma-counting analysis; assay type: ADME, cell-based; settings: hek-293t, 2 h
[15] = Drug uptake in human A549 cells using radiolabeled compound at 0.037 MBq incubated for 120 mins by gamma-counting analysis; assay type: ADME, cell-based; settings: a549, 2 h
[16] = tested on: A549; experiment: Reversal of DMBA-stimulated PTX resistance in human A549 cells assessed as decrease in cell viability at 10 uM incubated for 24 hrs in presence of DMBA and paclitaxel by MTT assay; assay type: functional, cell-based
[17] = tested on: A549; experiment: Inhibition of tumor metastasis in DMBA-stimulated PTX resistant human A549 cells assessed as inhibition of cell invasion at 10 uM incubated for 24 hrs by Transwell assay; assay type: functional, cell-based
[18] = tested on: A549; experiment: Inhibition of tumor metastasis in DMBA-stimulated PTX resistant human A549 cells assessed as inhibition of cell migration at 10 uM incubated for 48 hrs by wound healing assay; assay type: functional, cell-based
[19] = tested on: A549; experiment: Inhibition of tumor metastasis in DMBA-stimulated PTX resistant human A549 cells assessed as inhibition of cell migration by measuring decrease in crawling ability of cells at 2.5 to 10 uM incubated for 48 hrs by wound healing assay; assay type: functional, cell-based; settings: dose 2.5-10 µM
[20] = tested on: A549; experiment: Reversal of DMBA-stimulated PTX resistance in human A549 cells assessed as decrease in cell viability at 1.25 to 10 uM incubated for 24 hrs in presence of DMBA and paclitaxel by MTT assay; assay type: functional, cell-based; settings: dose 1.25-10 µM
[21] = as §1; assay type: ADME; settings: recombinant enzyme

Row | pIC50 [1] | pIC50 [3] | inhibition at 35 min, 0.01 µM [8] | inhibition at 35 min, 1 µM [9] | pIC50 [13] | SMILES | Ratio IC50 [2] | Activity [4] | Activity [5] | Activity [6] | inhibition [19] | Activity [20] | further results
1 | 7.07 | 5.82 | 93.7% | 95.2% | – | CCNc1nc(-c2ccc(I)cc2)nc2ccccc12.Cl | 2.07 10^6No_unit | Non-Toxic | Non-Toxic | 26.15% | – | – | logP ([7]; n-octanol/water, read-out: logP): 3.81
2 | 8.79 | 6.01 | – | – | 12.69 | CCNc1nc(-c2ccc(I)cc2)nc2ccccc12 [listing 1 of 2 here] | 7.95 10^5No_unit | – | – | – | – | – | Drug uptake [10]: Active; selectivity ratio [11]: 4.72e+06; logD [12]: 3.54; Drug uptake [14]: Active; Drug uptake [15]: Active
3 | 7.06 | – | 61% | 95.1% | – | O=c1cc(-c2ccccc2)oc2c1ccc1ccccc12 [ALPHA-NAPHTHOFLAVONE] | – | – | – | 15.53% | – | – | Activity [16]: Active; inhibition [17]: Active; inhibition [18]: Active
4 | – | – | – | – | – | CCNc1nc(-c2ccc(I)cc2)nc2ccccc12 [listing 2 of 2 here] | – | – | – | – | Active | Active | –
5 | – | – | – | – | – | CNc1nc(-c2ccc(I)cc2)nc2ccccc12 | – | – | – | – | Active | Active | –
6 | 7.56 | 6.08 | 96.6% | 97.1% | 12.77 | CNc1nc(-c2ccc(I)cc2)nc2ccccc12.Cl | 1.63 10^5No_unit | Non-Toxic | Non-Toxic | 32.84% | – | – | Ratio IC50 [21]: 4.92 10^6No_unit; logP ([7]; octanol/water): 3.15
